What follows are compounds tested against T1, Phospho-N-acetylmuramoyl-pentapeptide-transferase (Escherichia coli K-12, UniProt P0A6W3) (assay: Inhibition of Escherichia coli Translocase (mraY)).
T1 sequence (P0A6W3 whole entry): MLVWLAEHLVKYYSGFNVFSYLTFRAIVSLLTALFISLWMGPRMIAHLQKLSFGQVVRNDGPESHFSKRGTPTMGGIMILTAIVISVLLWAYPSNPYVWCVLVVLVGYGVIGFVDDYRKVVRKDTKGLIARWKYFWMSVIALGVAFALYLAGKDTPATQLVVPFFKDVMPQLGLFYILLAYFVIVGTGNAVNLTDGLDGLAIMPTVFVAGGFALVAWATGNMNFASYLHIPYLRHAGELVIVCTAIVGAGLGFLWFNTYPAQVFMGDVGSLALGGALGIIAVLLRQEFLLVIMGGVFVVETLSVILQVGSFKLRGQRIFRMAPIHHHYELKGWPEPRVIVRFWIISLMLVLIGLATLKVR

| Compound | IC50 |
| --- | --- |
| N=C(N)NC[C@H]1O[C@@H](OC[C@H]2O[C@@H](n3ccc(=O)[nH]c3=O)[C@H](O)[C@@H]2O)[C@H](O)[C@@H]1O | 25 µM |
| NC[C@H]1O[C@@H](OC(CO)[C@H]2O[C@@H](n3ccc(=O)[nH]c3=O)[C@H](O)[C@@H]2O)[C@H](O)[C@@H]1O (stereo partly specified) | 5 µM |
| CN(C)C[C@H]1O[C@@H](OC[C@H]2O[C@@H](n3ccc(=O)[nH]c3=O)[C@H](O)C2O)[C@H](O)C1O (single isomer, unassigned) | > 1000 µM |
| CC(C)NC[C@H]1O[C@@H](OC[C@H]2O[C@@H](n3ccc(=O)[nH]c3=O)[C@H](O)C2O)[C@H](O)C1O (single isomer, unassigned) | 180 µM |
| CCCCCCNC[C@H]1O[C@@H](OC[C@H]2O[C@@H](n3ccc(=O)[nH]c3=O)[C@H](O)C2O)[C@H](O)C1O (single isomer, unassigned) | 130 µM |
| C[N+](C)(C)C[C@H]1O[C@@H](OC[C@H]2O[C@@H](n3ccc(=O)[nH]c3=O)[C@H](O)C2O)[C@H](O)C1O (single isomer, unassigned) | > 1000 µM |

Further lines, results first:

| IC50 | Compound |
| --- | --- |
| > 1000 µM | CC(=O)NC[C@H]1O[C@@H](OC[C@H]2O[C@@H](n3ccc(=O)[nH]c3=O)[C@H](O)[C@@H]2O)[C@H](O)[C@@H]1O |
| 150 µM | CCNC[C@H]1O[C@@H](OC[C@H]2O[C@@H](n3ccc(=O)[nH]c3=O)[C@H](O)C2O)[C@H](O)C1O (single isomer, unassigned) |
| 30 µM | N=CNC[C@H]1O[C@@H](OC[C@H]2O[C@@H](n3ccc(=O)[nH]c3=O)[C@H](O)C2O)[C@H](O)C1O (single isomer, unassigned) |
| > 1000 µM | O=CNC[C@H]1O[C@@H](OC[C@H]2O[C@@H](n3ccc(=O)[nH]c3=O)[C@H](O)C2O)[C@H](O)C1O (single isomer, unassigned) |
| 140 µM | CCCNC[C@H]1O[C@@H](OC[C@H]2O[C@@H](n3ccc(=O)[nH]c3=O)[C@H](O)C2O)[C@H](O)C1O (single isomer, unassigned) |
| 50 µM | NC[C@H]1O[C@@H](OC[C@H]2O[C@@H](n3ccc(=O)[nH]c3=O)[C@H](O)C2O)[C@H](O)C1O (single isomer, unassigned) |
| 45 µM | CNC[C@H]1O[C@@H](OC[C@H]2O[C@@H](n3ccc(=O)[nH]c3=O)[C@H](O)C2O)[C@H](O)C1O (single isomer, unassigned) |
| > 1000 µM | O=c1ccn([C@@H]2O[C@H](CO[C@@H]3O[C@H](CO)C(O)[C@H]3O)C(O)[C@H]2O)c(=O)[nH]1 (single isomer, unassigned) |

Each compound was assayed against T1, Phospho-N-acetylmuramoyl-pentapeptide-transferase (assay: Inhibition of Translocase (mraY) at >1000 uM (No activity)).

| IC50 | Compound |
| --- | --- |
| Not Active | Cn1c(=O)ccn([C@@H]2O[C@H](CO[C@@H]3O[C@H](CN)C(O)[C@H]3O)C(O)[C@H]2O)c1=O (single isomer, unassigned) |
| Not Active | NC[C@H]1O[C@@H](OC[C@H]2O[C@@H](N3CCC(=O)NC3=O)[C@H](O)C2O)[C@H](O)C1O (single isomer, unassigned) |

— ChEMBL document CHEMBL1134708, “Synthesis of analogues of the O-beta-D-ribofuranosyl nucleoside moiety of liposidomycins. Part 1: contribution of the amino group and the uracil moiety upon the inhibition of MraY” (Bioorg Med Chem Lett, 2001)
